# Measurements reported in PMC9005681, “Use of AD Informer Set compounds to explore validity of novel targets in Alzheimer's disease pathology” (Alzheimer's & Dementia : Translational Research & Clinical …, 2022).
# Values joined by “and” are separate entries in the source; they are usually repeats but may differ in a detail not shown here. Equal entries are not always repeated.
# Assays:
# [1] = target: T1, cloned human or rodent CNS receptors, channels, and transporters (PDSP panel) (Homo sapiens, UniProt P08172); assay: PDSP GPCR panel primary binding assays at 10 μM; conditions: primary assay
# T1 construct: expressed in transfected cells
# T1 sequence (P08172 1-466): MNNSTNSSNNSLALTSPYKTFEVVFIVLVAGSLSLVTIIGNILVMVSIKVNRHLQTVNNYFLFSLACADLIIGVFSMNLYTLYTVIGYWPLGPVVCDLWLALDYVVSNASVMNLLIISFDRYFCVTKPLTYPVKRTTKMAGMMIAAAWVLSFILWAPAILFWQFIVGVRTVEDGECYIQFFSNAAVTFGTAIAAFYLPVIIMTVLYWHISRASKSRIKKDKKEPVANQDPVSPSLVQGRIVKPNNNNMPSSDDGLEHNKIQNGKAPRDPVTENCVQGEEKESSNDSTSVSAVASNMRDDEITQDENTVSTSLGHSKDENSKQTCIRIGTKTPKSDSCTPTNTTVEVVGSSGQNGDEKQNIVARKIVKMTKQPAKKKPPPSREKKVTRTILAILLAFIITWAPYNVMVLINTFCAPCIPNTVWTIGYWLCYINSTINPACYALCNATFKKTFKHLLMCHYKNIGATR
# Description: (§1) GPCR panel: Screening against the receptors within the PDSP panel offers an assessment of off-target pharmacological activity at cloned human or rodent CNS receptors, channels, and transporters that could confound CNS-related phenotypes. A total of 46–47 primary binding assays were run in quadruplicate on these compounds at 10 μM, with follow-up secondary binding assays in 11-point dose-response in triplicate for select compounds versus select receptors. Secondary binding assays were executed for all receptors where test compound displaced an average of >50% of radio-labeled standard ligand. As an exception, no secondary assays were carried out for H3, PBR, or GABAA. […]
# [2] = target: T2, cloned human or rodent CNS receptors, channels, and transporters (PDSP panel) (Homo sapiens, UniProt P08908); assay: PDSP GPCR panel primary binding assays at 10 μM; conditions: primary assay
# T2 construct: expressed in transfected cells
# T2 sequence (P08908 1-422): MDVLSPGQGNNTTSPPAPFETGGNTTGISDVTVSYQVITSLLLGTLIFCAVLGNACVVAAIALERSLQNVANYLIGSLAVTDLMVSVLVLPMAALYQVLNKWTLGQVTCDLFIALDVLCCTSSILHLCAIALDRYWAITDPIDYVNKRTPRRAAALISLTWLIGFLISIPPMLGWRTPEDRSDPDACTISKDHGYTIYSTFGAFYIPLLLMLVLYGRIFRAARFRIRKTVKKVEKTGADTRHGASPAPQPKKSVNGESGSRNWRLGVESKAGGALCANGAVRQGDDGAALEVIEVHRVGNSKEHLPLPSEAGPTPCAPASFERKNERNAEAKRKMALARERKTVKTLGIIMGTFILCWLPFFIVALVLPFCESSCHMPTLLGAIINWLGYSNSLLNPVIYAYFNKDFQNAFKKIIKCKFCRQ
# Description: as §1
# [3] = target: T3, cloned human or rodent CNS receptors, channels, and transporters (PDSP panel) (Homo sapiens, UniProt P14416); assay: PDSP GPCR panel primary binding assays at 10 μM; conditions: primary assay
# T3 construct: expressed in transfected cells
# T3 sequence (P14416 whole entry): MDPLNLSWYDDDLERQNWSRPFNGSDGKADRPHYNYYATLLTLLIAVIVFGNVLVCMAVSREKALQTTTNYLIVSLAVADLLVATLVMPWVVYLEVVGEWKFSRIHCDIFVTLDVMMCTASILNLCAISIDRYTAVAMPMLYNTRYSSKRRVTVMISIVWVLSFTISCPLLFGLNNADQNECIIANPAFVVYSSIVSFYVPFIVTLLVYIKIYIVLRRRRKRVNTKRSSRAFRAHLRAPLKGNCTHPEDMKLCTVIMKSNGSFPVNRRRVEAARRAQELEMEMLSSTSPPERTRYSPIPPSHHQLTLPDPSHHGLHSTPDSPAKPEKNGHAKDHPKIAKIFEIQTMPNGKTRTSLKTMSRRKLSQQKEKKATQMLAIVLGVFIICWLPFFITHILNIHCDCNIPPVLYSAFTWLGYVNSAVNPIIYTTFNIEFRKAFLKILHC
# Description: as §1
# [4] = target: T4, cloned human or rodent CNS receptors, channels, and transporters (PDSP panel) (Homo sapiens, UniProt P21918); assay: PDSP GPCR panel primary binding assays at 10 μM; conditions: primary assay
# T4 construct: expressed in transfected cells
# T4 sequence (P21918 whole entry): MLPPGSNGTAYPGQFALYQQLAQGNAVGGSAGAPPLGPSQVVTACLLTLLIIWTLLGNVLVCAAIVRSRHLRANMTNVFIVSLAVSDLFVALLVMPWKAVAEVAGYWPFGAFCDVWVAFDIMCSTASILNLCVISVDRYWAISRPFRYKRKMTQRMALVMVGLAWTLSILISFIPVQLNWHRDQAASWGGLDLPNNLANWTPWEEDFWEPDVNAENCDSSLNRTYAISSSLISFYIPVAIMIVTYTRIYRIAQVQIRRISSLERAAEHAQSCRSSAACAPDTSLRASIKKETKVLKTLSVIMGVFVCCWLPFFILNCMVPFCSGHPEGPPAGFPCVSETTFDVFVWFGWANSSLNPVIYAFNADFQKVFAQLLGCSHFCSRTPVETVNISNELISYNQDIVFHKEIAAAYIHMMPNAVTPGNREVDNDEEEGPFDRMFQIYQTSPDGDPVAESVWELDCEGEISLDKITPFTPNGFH
# Description: as §1
# [5] = target: T5, cloned human or rodent CNS receptors, channels, and transporters (PDSP panel) (Homo sapiens, UniProt P23975); assay: PDSP GPCR panel primary binding assays at 10 μM; conditions: primary assay
# T5 construct: expressed in transfected cells
# T5 sequence (P23975 whole entry): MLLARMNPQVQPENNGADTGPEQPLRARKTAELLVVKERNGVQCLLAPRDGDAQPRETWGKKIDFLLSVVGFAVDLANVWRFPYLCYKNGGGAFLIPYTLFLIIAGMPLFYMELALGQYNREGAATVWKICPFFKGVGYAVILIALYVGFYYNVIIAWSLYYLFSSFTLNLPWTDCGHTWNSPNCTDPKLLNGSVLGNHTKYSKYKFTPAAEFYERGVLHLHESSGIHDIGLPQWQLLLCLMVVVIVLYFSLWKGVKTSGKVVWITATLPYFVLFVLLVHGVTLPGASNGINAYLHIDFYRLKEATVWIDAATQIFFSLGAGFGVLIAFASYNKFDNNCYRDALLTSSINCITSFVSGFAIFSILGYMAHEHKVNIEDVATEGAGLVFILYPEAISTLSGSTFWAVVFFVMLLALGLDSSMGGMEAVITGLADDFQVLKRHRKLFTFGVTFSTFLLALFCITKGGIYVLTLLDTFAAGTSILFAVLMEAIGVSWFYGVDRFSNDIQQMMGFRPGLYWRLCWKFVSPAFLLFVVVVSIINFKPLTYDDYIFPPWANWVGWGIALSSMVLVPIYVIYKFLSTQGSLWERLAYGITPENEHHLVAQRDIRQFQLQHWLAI
# Description: as §1
# [6] = target: T6, cloned human or rodent CNS receptors, channels, and transporters (PDSP panel) (Homo sapiens, UniProt P28222); assay: PDSP GPCR panel primary binding assays at 10 μM; conditions: primary assay
# T6 construct: expressed in transfected cells
# T6 sequence (P28222 whole entry): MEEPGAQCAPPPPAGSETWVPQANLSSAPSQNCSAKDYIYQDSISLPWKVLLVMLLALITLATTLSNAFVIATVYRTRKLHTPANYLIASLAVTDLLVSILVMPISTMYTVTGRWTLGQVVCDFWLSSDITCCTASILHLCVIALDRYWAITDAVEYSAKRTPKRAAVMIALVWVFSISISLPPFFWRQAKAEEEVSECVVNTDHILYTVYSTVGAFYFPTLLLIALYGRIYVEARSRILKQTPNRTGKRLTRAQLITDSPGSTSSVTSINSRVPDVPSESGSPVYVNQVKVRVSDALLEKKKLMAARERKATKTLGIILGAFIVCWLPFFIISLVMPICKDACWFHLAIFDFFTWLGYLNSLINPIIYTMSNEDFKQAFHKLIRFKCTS
# Description: as §1
# [7] = target: T7, cloned human or rodent CNS receptors, channels, and transporters (PDSP panel) (Homo sapiens, UniProt P35462); assay: PDSP GPCR panel primary binding assays at 10 μM; conditions: primary assay
# T7 construct: expressed in transfected cells
# T7 sequence (P35462 whole entry): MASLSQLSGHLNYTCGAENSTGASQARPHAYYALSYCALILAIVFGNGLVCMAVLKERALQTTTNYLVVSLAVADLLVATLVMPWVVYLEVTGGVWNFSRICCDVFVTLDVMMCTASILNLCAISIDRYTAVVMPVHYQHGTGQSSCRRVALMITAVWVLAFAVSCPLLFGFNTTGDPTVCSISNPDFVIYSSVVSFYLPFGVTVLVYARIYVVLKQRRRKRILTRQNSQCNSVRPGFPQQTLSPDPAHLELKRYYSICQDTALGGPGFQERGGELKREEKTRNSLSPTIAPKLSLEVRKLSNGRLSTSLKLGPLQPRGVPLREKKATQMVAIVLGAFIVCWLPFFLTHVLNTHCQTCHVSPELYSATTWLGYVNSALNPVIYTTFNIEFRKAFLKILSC
# Description: as §1
# [8] = target: T8, cloned human or rodent CNS receptors, channels, and transporters (PDSP panel) (Homo sapiens, UniProt P41595); assay: PDSP GPCR panel primary binding assays at 10 μM; conditions: primary assay
# T8 construct: expressed in transfected cells
# T8 sequence (P41595 whole entry): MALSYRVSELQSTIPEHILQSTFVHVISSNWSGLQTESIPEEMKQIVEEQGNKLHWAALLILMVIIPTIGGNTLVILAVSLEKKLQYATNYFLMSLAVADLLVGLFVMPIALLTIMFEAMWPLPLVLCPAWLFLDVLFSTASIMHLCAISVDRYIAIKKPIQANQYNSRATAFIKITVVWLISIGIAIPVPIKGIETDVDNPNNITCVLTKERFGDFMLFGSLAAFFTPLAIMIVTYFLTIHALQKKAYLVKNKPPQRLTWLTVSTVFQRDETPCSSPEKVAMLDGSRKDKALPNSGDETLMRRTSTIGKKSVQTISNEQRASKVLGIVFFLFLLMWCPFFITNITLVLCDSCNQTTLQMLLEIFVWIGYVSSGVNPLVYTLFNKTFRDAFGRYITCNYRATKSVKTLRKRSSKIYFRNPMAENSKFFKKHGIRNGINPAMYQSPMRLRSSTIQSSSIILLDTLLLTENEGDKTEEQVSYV
# Description: as §1
# [9] = target: T9, cloned human or rodent CNS receptors, channels, and transporters (PDSP panel) (Homo sapiens, UniProt P50406); assay: PDSP GPCR panel primary binding assays at 10 μM; conditions: primary assay
# T9 construct: expressed in transfected cells
# T9 sequence (P50406 whole entry): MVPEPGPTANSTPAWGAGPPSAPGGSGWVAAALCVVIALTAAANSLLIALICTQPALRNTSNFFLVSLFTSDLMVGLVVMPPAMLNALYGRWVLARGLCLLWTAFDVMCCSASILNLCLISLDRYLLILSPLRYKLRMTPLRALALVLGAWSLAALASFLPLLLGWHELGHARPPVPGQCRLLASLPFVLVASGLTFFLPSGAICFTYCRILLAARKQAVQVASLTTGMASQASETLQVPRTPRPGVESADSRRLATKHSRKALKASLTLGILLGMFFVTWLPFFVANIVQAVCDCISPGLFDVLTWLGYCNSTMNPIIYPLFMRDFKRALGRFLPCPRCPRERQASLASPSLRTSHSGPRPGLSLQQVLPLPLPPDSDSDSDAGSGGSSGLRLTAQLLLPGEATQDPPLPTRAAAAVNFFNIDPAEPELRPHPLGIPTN
# Description: as §1
# cellular system = tested on: cellular system; set-up: method as in column References for potency and dosing (the 5th table c13); conditions: published data; References for potency and dosing; cited from earlier work
# [10] = aqueous, neutral pH (7.4); cited from earlier work
smiles,measurement,setting,value
"CCCCNc1ncc2c(-c3ccc(CN4CCN(C)CC4)cc3)cn([C@H]3CC[C@H](O)CC3)c2n1 [UNC2025C, UNC2025]",Inhibition 1,"[1]; Receptor M2, 10 μM",32.43%
same,Inhibition 2,"[1]; Receptor M2, 10 μM",20.76%
same,Inhibition 3,"[1]; Receptor M2, 10 μM",14.93%
same,Inhibition 4,"[1]; Receptor M2, 10 μM",24.5%
same,Mean %,"[1]; Receptor M2, 10 μM, mean of Inhibition 1-4",23.16%
same,Inhibition 1,"[2]; Receptor 5-HT1A, 10 μM",9.39%
same,Inhibition 2,"[2]; Receptor 5-HT1A, 10 μM",-18.53%
same,Inhibition 3,"[2]; Receptor 5-HT1A, 10 μM",19.05%
same,Inhibition 4,"[2]; Receptor 5-HT1A, 10 μM",31.46%
same,Mean %,"[2]; Receptor 5-HT1A, 10 μM, mean of Inhibition 1-4",10.34%
same,Inhibition 1,"[3]; Receptor D2, 10 μM",11.9%
same,Inhibition 2,"[3]; Receptor D2, 10 μM",-4.63%
same,Inhibition 3,"[3]; Receptor D2, 10 μM",2.76%
same,Inhibition 4,"[3]; Receptor D2, 10 μM",-1.81%
same,Mean %,"[3]; Receptor D2, 10 μM, mean of Inhibition 1-4",2.06%
same,Inhibition 1,"[4]; Receptor D5, 10 μM",6.22%
same,Inhibition 2,"[4]; Receptor D5, 10 μM",2.13%
same,Inhibition 3,"[4]; Receptor D5, 10 μM",5.78%
same,Inhibition 4,"[4]; Receptor D5, 10 μM",14.39%
same,Mean %,"[4]; Receptor D5, 10 μM, mean of Inhibition 1-4",7.13%
same,Inhibition 1,"[5]; Receptor NET, 10 μM",67.05% and 40.06%
same,Inhibition 2,"[5]; Receptor NET, 10 μM",52.92% and 42.04%
same,Inhibition 3,"[5]; Receptor NET, 10 μM",47% and 40.28%
same,Inhibition 4,"[5]; Receptor NET, 10 μM",46.05% and 54.77%
same,Mean %,"[5]; Receptor NET, 10 μM, mean of Inhibition 1-4",53.26% and 44.29%
same,Inhibition 1,"[6]; Receptor 5-HT1B, 10 μM",31.06%
same,Inhibition 2,"[6]; Receptor 5-HT1B, 10 μM",11.01%
same,Inhibition 3,"[6]; Receptor 5-HT1B, 10 μM",10.42%
same,Inhibition 4,"[6]; Receptor 5-HT1B, 10 μM",12.97%
same,Mean %,"[6]; Receptor 5-HT1B, 10 μM, mean of Inhibition 1-4",16.37%
same,Inhibition 1,"[7]; Receptor D3, 10 μM",18.68%
same,Inhibition 2,"[7]; Receptor D3, 10 μM",25.04%
same,Inhibition 3,"[7]; Receptor D3, 10 μM",10.39%
same,Inhibition 4,"[7]; Receptor D3, 10 μM",7.11%
same,Mean %,"[7]; Receptor D3, 10 μM, mean of Inhibition 1-4",15.31%
same,Inhibition 1,"[8]; Receptor 5-HT2B, 10 μM",1.21%
same,Inhibition 2,"[8]; Receptor 5-HT2B, 10 μM",8.76%
same,Inhibition 3,"[8]; Receptor 5-HT2B, 10 μM",-7.6%
same,Inhibition 4,"[8]; Receptor 5-HT2B, 10 μM",18.41%
same,Mean %,"[8]; Receptor 5-HT2B, 10 μM, mean of Inhibition 1-4",5.2%
same,Inhibition 1,"[9]; Receptor 5-HT6, 10 μM",-20.29%
same,Inhibition 2,"[9]; Receptor 5-HT6, 10 μM",0.2%
same,Inhibition 3,"[9]; Receptor 5-HT6, 10 μM",-8.54%
same,Inhibition 4,"[9]; Receptor 5-HT6, 10 μM",-2.02%
same,Mean %,"[9]; Receptor 5-HT6, 10 μM, mean of Inhibition 1-4",-7.66%
same,Reported as cell active (<10 μM),cellular system,Y (Published data supports that the compound is active in a cellular system when dosed at 10 μM (Y/N))
same,Kinetic solubility,[10],43.4 µM
"O=C(NC1CC1)C(=O)C(Cc1ccccc1)NC(=O)[C@H]1CCC(=O)N1Cc1ccccc1 (stereo partly drawn) [UNC10302676A, ABT-957 (Alicapistat)]",Mean %,"[1]; M2, mean inhibition",2.92%
same,Inhibition 1,"[1]; M2, replicate 1",7.16%
same,Inhibition 2,"[1]; M2, replicate 2",-5.38%
same,Inhibition 3,"[1]; M2, replicate 3",7.65%
same,Inhibition 4,"[1]; M2, replicate 4",2.24%
same,Mean %,"[2]; 5-HT1A, mean inhibition",3.84%
same,Inhibition 1,"[2]; 5-HT1A, replicate 1",12.84%
same,Inhibition 2,"[2]; 5-HT1A, replicate 2",2.5%
same,Inhibition 3,"[2]; 5-HT1A, replicate 3",6.64%
same,Inhibition 4,"[2]; 5-HT1A, replicate 4",-6.64%
same,Mean %,"[3]; D2, mean inhibition",-21.21%
same,Inhibition 1,"[3]; D2, replicate 1",-14.25%
same,Inhibition 2,"[3]; D2, replicate 2",-31.51%
same,Inhibition 3,"[3]; D2, replicate 3",-11.38%
same,Inhibition 4,"[3]; D2, replicate 4",-27.71%
same,Mean %,"[4]; D5, mean inhibition",-6.38%
same,Inhibition 1,"[4]; D5, replicate 1",0%
same,Inhibition 2,"[4]; D5, replicate 2",3.82%
same,Inhibition 3,"[4]; D5, replicate 3",-18.95%
same,Inhibition 4,"[4]; D5, replicate 4",-10.39%
same,Inhibition 1,"[5]; NET, replicate 1",22.45% and -0.84%
same,Inhibition 2,"[5]; NET, replicate 2",-3.8% and -22.08%
same,Inhibition 3,"[5]; NET, replicate 3",-17.85% and -14.66%
same,Inhibition 4,"[5]; NET, replicate 4",-11.29% and -22.96%
same,Mean %,"[6]; 5-HT1B, mean inhibition",8.92%
same,Inhibition 1,"[6]; 5-HT1B, replicate 1",9.16%
same,Inhibition 2,"[6]; 5-HT1B, replicate 2",10.49%
same,Inhibition 3,"[6]; 5-HT1B, replicate 3",8.83%
same,Inhibition 4,"[6]; 5-HT1B, replicate 4",7.18%
same,Mean %,"[7]; D3, mean inhibition",10.85%
same,Inhibition 1,"[7]; D3, replicate 1",10.26%
same,Inhibition 2,"[7]; D3, replicate 2",-6.41%
same,Inhibition 3,"[7]; D3, replicate 3",23.48%
same,Inhibition 4,"[7]; D3, replicate 4",16.06%
same,Mean %,"[8]; 5-HT2B, mean inhibition",-32.15%
same,Inhibition 1,"[8]; 5-HT2B, replicate 1",-14.32%
same,Inhibition 2,"[8]; 5-HT2B, replicate 2",-33.19%
same,Inhibition 3,"[8]; 5-HT2B, replicate 3",-45.78%
same,Inhibition 4,"[8]; 5-HT2B, replicate 4",-35.29%
same,Mean %,"[9]; 5-HT6, mean inhibition",-7.55%
same,Inhibition 1,"[9]; 5-HT6, replicate 1",7.34%
same,Inhibition 2,"[9]; 5-HT6, replicate 2",-8.22%
same,Inhibition 3,"[9]; 5-HT6, replicate 3",-20.76%
same,Inhibition 4,"[9]; 5-HT6, replicate 4",-8.54%
same,Reported as cell active (<10 μM),cellular system,Y (Published data supports that the compound is active in a cellular system when dosed at 10 μM (Y/N))
same,Kinetic solubility,[10],176.5 µM
